According to publication PMC6328587 (Nature Communications, 2019):
“And” between values parts separate entries of the source, which are not always exact repeats. Equal entries are not always repeated.

Legend:
[1] = biological target: T1, p38α (Homo sapiens, UniProt Q16539); test: PROTAC-induced p38α degradation, western blot in MDA-MB-231 cells; assay type: cell-based; conditions: 0.025-5.0 µM survey, ± one s.d., Supplementary Table 1; for DC50: biological duplicates
T1 construct: SJFα PROTAC (13-atom linker, amide attachment) selectively degrades p38α; endogenous in cells; host or cells: MDA-MB-231
T1 sequence (Q16539 whole entry): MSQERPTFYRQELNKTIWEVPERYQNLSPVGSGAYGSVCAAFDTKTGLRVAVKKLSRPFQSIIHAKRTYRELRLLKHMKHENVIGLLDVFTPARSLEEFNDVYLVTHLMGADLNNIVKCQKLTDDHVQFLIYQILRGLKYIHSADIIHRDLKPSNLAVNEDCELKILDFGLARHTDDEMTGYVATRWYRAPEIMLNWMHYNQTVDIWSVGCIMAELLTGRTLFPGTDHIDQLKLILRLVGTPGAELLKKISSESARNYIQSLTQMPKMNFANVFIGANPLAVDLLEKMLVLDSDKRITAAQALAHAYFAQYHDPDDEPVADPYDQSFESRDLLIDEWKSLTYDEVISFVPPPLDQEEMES
Protocol: (§1) MDA-MB-231 and HeLa cells were obtained from the American Type Culture Collection (ATCC), cultured in RPMI-1640 medium (1 × ) and Dulbecco’s modified Eagle’s medium (DMEM; 1 × ), respectively, containing 10% fetal bovine serum and 1% penicillin–streptomycin and grown in a humidified incubator at 37 °C and 5% CO2.
(§2) […] once with ice-cold PBS (1 × ), followed by lysis in buffer containing 25 mM Tris [pH 7.5], 0.25% sodium deoxycholate, 1% Triton X-100, supplemented with 1X protease inhibitor cocktail (Roche), and phosphatase inhibitors (10 mM NaF, 1 mM Na3VO4, and 20 mM β-glycerophosphate), unless otherwise noted. Lysates were spun at 14,000 × g for 10 min at 4 °C and supernatant was evaluated for protein content using a Pierce BCA Protein Assay (ThermoFisher Scientific). In all experiments, 25–50 μg of protein was loaded onto 10% SDS-PAGE gels or 4–20% Criterion TGX precast gradient gels (Bio-Rad), transferred to nitrocellulose membranes, and probed with the specified antibodies overnight at 4 °C in 1X TBS-Tween (Tris-buffered saline plus 0.02% Tween 20) containing 5% non-fat milk. Immunoblots were visualized using a Bio-Rad ChemiDoc imaging instrument and subsequently processed and quantified using the accompanying Bio-Rad ImageLab software. See Supplementary Figure 8 for uncropped scans of western blots shown in the main text figures.
(§3) Western blot data in Figs. 2, 6, and Supplementary Figures 2, 3 were quantified by using the band feature in Image Lab (Bio-Rad). The p38 values were normalized to the α-tubulin signal to account for differences in protein load, and PROTAC-treated normalized values were expressed as a % of the vehicle-treated (no PROTAC) value, which itself was defined as 100% p38 protein level. […] The sigmoidal fit established both the full extent of degradation, or Dmax at the bottom asymptote of the curve, as well as the DC50, which is the inflection point at which 50% of the total degradation observed was reached.

[2] = biological target: T2, p38δ (Homo sapiens, UniProt O15264); test: PROTAC-induced p38δ degradation, western blot in MDA-MB-231 cells; assay type: cell-based; conditions: 0.025-5.0 µM survey, ± one s.d., Supplementary Table 1; for DC50: biological duplicates
T2 construct: endogenous in cells; host or cells: MDA-MB-231
T2 sequence (O15264 1-365): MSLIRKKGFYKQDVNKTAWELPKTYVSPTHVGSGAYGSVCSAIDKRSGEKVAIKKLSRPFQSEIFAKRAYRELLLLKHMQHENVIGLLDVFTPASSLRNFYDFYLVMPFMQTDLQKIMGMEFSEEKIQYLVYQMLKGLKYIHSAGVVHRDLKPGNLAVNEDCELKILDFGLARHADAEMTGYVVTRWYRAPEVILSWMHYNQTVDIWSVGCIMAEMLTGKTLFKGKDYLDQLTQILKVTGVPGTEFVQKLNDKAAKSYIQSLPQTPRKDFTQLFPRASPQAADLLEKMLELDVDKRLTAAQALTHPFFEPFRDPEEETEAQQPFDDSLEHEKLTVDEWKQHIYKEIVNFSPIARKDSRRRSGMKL
Protocol: as §1, §2, §3

Row | SMILES | DC50 [1] [nM] | Dmax p38α (maximum percentage of degradation) [1] | DC50 [2] | Dmax p38δ (maximum percentage of degradation) [2]
1 | COc1cc2c(Oc3ccc(NC(=O)C4(C(=O)Nc5ccc(F)cc5)CC4)cc3F)ccnc2cc1OCCCOCCCOCCC(=O)N[C@H](C(=O)N1C[C@H](O)C[C@H]1C(=O)NCc1ccc(-c2scnc2C)cc1)C(C)(C)C | 230 ± 47 | 90.1 ± 4.2% | 456 ± 362 nM | –
2 | COc1cc2c(Oc3ccc(NC(=O)C4(C(=O)Nc5ccc(F)cc5)CC4)cc3F)ccnc2cc1OCCCOCCOCCCOc1cc(-c2scnc2C)ccc1CNC(=O)C1CC(O)CN1C(=O)C(C(C)C)N1Cc2ccccc2C1=O (centres unmarked) [BES-4612] | 760 ± 1500 | 16.8 ± 13.4% | 1890 ± 2350 nM | 78.7 ± 40.8%
3 | COc1cc2c(Oc3ccc(NC(=O)C4(C(=O)Nc5ccc(F)cc5)CC4)cc3F)ccnc2cc1OCCCCOCCCCOc1cc(-c2scnc2C)ccc1CNC(=O)C1CC(O)CN1C(=O)C(C(C)C)N1Cc2ccccc2C1=O (centres unmarked) [SJF-6677] | 127 ± 163 | < 50% and 25.3 ± 6.6% | 106 ± 81.5 nM | < 50% and 43.5 ± 7.2%
4 | COc1cc2c(Oc3ccc(NC(=O)C4(C(=O)Nc5ccc(F)cc5)CC4)cc3F)ccnc2cc1OCCCOCCCOCCCOc1cc(-c2scnc2C)ccc1CNC(=O)C1CC(O)CN1C(=O)C(C(C)C)N1Cc2ccccc2C1=O (centres unmarked) [SJF-6685] | 304 ± 691 | – | 1140 ± 1950 nM | 33.5 ± 27.2%
5 | COc1cc2c(Oc3ccc(NC(=O)C4(C(=O)Nc5ccc(F)cc5)CC4)cc3F)ccnc2cc1OCCCOCCOCCC(=O)N[C@H](C(=O)N1C[C@H](O)C[C@H]1C(=O)NCc1ccc(-c2scnc2C)cc1)C(C)(C)C [SJF-6690] | – | 99.4 ± 2.0% | < 100 nM and 91.7 nM | 96.7 ± 3.7%
6 | COc1cc2c(Oc3ccc(NC(=O)C4(C(=O)Nc5ccc(F)cc5)CC4)cc3F)ccnc2cc1OCCOCCOCCC(=O)N[C@H](C(=O)N1C[C@H](O)C[C@H]1C(=O)NCc1ccc(-c2scnc2C)cc1)C(C)(C)C [SJF-6693] | – | 92.6 ± 2.8% | < 100 nM and 51.4 nM | 81.8 ± 1.9%
